{
  "source": "patent EP0025288A1",
  "about": "“Derivatives of monic acid, processes for their preparation, compositions containing them and their preparation” (priority 1979, dated 1981)",
  "key": {"Bord bronchisptica BO9": {"tested_on": "Bord bronchisptica BO9", "assay": "MIC, veterinary bacteria", "assay_type": "cell-based", "details": "veterinary bacteria (Table 2), read-out: MIC"}, "Past multocida PA1": {"tested_on": "Past multocida PA1", "assay": "MIC, veterinary bacteria", "assay_type": "cell-based", "details": "veterinary bacteria (Table 2), read-out: MIC"}, "[1]": {"tested_on": "Corynebacterium pyogenes CY1", "assay": "MIC, veterinary bacteria", "assay_type": "cell-based", "details": "veterinary bacteria (Table 2), read-out: MIC"}, "[2]": {"tested_on": "Staph aureus B4 (pen resis)", "assay": "MIC, veterinary bacteria", "assay_type": "cell-based", "details": "Staphylococcus aureus, veterinary bacteria (Table 2), read-out: MIC"}, "M. suipneumoniae MS 16": {"tested_on": "M. suipneumoniae MS 16", "assay": "MIC, anti-mycoplasmal, Friis broth solidified with 0.9% agarose", "assay_type": "cell-based", "details": "Mesomycoplasma hyopneumoniae, MS16, 144 h, inoculum 10^3 to 10^5 C.F.U., 6 days incubation at 37°C, read-out: in vitro MIC"}, "M. suipneumoniae UCD 1": {"tested_on": "M. suipneumoniae UCD 1", "assay": "MIC, anti-mycoplasmal, Friis broth solidified with 0.9% agarose", "assay_type": "cell-based", "details": "Mesomycoplasma hyopneumoniae, UCD1, 144 h, inoculum 10^3 to 10^5 C.F.U., 6 days incubation at 37°C, read-out: in vitro MIC"}, "M. hyorhinis ATCC 25021": {"tested_on": "M. hyorhinis ATCC 25021", "assay": "MIC, anti-mycoplasmal, Friis broth solidified with 0.9% agarose", "assay_type": "cell-based", "details": "Mesomycoplasma hyorhinis, ATCC25021, 144 h, inoculum 10^3 to 10^5 C.F.U., 6 days incubation at 37°C, read-out: in vitro MIC"}, "M. dispar NCTC 10125": {"tested_on": "M. dispar NCTC 10125", "assay": "MIC, anti-mycoplasmal, Friis broth solidified with 0.9% agarose", "assay_type": "cell-based", "details": "144 h, inoculum 10^3 to 10^5 C.F.U., 6 days incubation at 37°C, read-out: in vitro MIC"}, "[3]": {"assay": "Mean serum concentration in neonatal piglets after intramuscular or oral administration", "assay_type": "in vivo", "details": "pig, 50 mg/kg; for concentration at 1 h: 60'", "description": "e) Mean serum concentration in neonatal piglets of Examples 4 and 5 after intramuscular or oral administration at 50 mg/kg\nBlood levels were assessed in neonatal piglets (2 to 4 animals per group and man bodyweights about 2 kg). The dose was 50 mg/kg (dose solution = 25 mg/ml in 25% ethanol). Doses were given by intramuscular injection and orally by stomach tube. Piglets were bled at intervals up to 8 and at 24 hours, and serum assayed microbiologically (B. subtilis ATCC 6633)."}},
  "data": [
    {"smiles": "CC(=CC(=O)OCCCC(=O)c1ccccc1)CC1OCC(CC2OC2C(C)C(C)O)C(O)C1O", "note": "(stereo not shown) [Example 5, 4-Phenylbutan-4-onyl monate A]", "values": [
      {"measurement": "MIC", "setting": "Bord bronchisptica BO9", "value": 5, "unit": "µg/mL"},
      {"measurement": "MIC", "setting": "Past multocida PA1", "value": 1.25, "unit": "µg/mL"},
      {"measurement": "MIC", "setting": "[1]", "value": "> 80", "unit": "µg/mL"},
      {"measurement": "MIC", "setting": "[2]", "value": 0.156, "unit": "µg/mL"},
      {"measurement": "MIC", "setting": "M. suipneumoniae MS 16", "value": 0.25, "unit": "µg/mL"},
      {"measurement": "MIC", "setting": "M. suipneumoniae UCD 1", "value": 0.5, "unit": "µg/mL"},
      {"measurement": "MIC", "setting": "M. hyorhinis ATCC 25021", "value": 0.25, "unit": "µg/mL"},
      {"measurement": "MIC", "setting": "M. dispar NCTC 10125", "value": 0.1, "unit": "µg/mL"},
      {"measurement": "concentration at 10 min", "setting": "[3]; im", "value": 1900, "unit": "ng/mL"},
      {"measurement": "concentration at 20 min", "setting": "[3]; im", "value": 2300, "unit": "ng/mL"},
      {"measurement": "concentration at 40 min", "setting": "[3]; im", "value": 1500, "unit": "ng/mL"},
      {"measurement": "concentration at 1 h", "setting": "[3]; im", "value": 1200, "unit": "ng/mL"},
      {"measurement": "concentration at 2 h", "setting": "[3]; im", "value": 570, "unit": "ng/mL"},
      {"measurement": "concentration at 3 h", "setting": "[3]; im", "value": 380, "unit": "ng/mL"},
      {"measurement": "concentration at 4 h", "setting": "[3]; im", "value": 330, "unit": "ng/mL"},
      {"measurement": "concentration at 6 h", "setting": "[3]; im", "value": 310, "unit": "ng/mL"},
      {"measurement": "concentration at 8 h", "setting": "[3]; im", "value": 180, "unit": "ng/mL"},
      {"measurement": "concentration at 24 h", "setting": "[3]; im", "value": "< 200", "unit": "ng/mL"},
      {"measurement": "concentration at 10 min", "setting": "[3]; po", "value": 1200, "unit": "ng/mL"},
      {"measurement": "concentration at 20 min", "setting": "[3]; po", "value": 1200, "unit": "ng/mL"},
      {"measurement": "concentration at 40 min", "setting": "[3]; po", "value": 1200, "unit": "ng/mL"},
      {"measurement": "concentration at 1 h", "setting": "[3]; po", "value": 860, "unit": "ng/mL"},
      {"measurement": "concentration at 2 h", "setting": "[3]; po", "value": 230, "unit": "ng/mL"},
      {"measurement": "concentration at 3 h", "setting": "[3]; po", "value": 160, "unit": "ng/mL"},
      {"measurement": "concentration at 4 h", "setting": "[3]; po", "value": 80, "unit": "ng/mL"},
      {"measurement": "concentration at 6 h", "setting": "[3]; po", "value": 50, "unit": "ng/mL"},
      {"measurement": "concentration at 8 h", "setting": "[3]; po", "value": 30, "unit": "ng/mL"},
      {"measurement": "concentration at 24 h", "setting": "[3]; po", "value": "< 200", "unit": "ng/mL"}
    ]}
  ]
}
